Values quoted from earlier work, collected in patent US20210268046A1, “CANNABINOID & PROBIOTIC SUPPOSITORIES & METHODS OF USE” (HoneyHills TX, LLC, priority 2020, published 2021).

Details: for psychotic symptoms: acute paranoid schizophrenia

CCN1CCCC1CNC(=O)c1cc(S(=O)(=O)CC)c(N)cc1OC (stereo not drawn) [Amisuipride]
psychotic symptoms: significant decrease

C=C(C)[C@@H]1CCC(C)=C[C@H]1c1c(O)cc(CCCCC)cc1O [cannabidiol, Cannabidiol]
psychotic symptoms: significant decrease | side effects (compared with Amisuipride): fewer side effects
